Test results as given in US6664224B2, “Quaternary ammonium salt and process for the preparation thereof” (priority 2000, dated 2003).

What was measured:
S. aureus = experiment: Anti-septic power test (USP XX); assay type: cell-based, Staphylococcus aureus; details: test sample 0.002 wt %
Description: (§1) Solutions prepared according to the formulation set forth in Tables 10 and 11 below were subjected to anti-septic power test according to the method defined in Pharmacopoeia of the United States XX, 873 (1980). The solutions thus tested were then observed for anti-septic power after 1 hour, 4 hours, 24 hours, 7 days, 14 days, 21 days and 28 days. As test microorganisms, E. coli, P. auru. and S. Aureus were used as bacteria and A. niger and C. albicans were used as fungi. 4BAMP-6C and benzalkonium chloride were used as test samples.

A. niger = experiment: Anti-septic power test (USP XX); assay type: cell-based, Aspergillus niger; details: test sample 0.002 wt %
Description: as §1

P. aeruginosa = experiment: Anti-septic power test (USP XX); assay type: cell-based, Pseudomonas aeruginosa; details: test sample 0.002 wt %
Description: as §1

[1] = test system: Aspergillus niger IFO 6431; experiment: Minimum development inhibiting concentration (MIC) against fungi; assay type: cell-based; details: A. niger; spore solution, 27° C. 1 week
Description: (§2) A sample fungus which had been pre-cultured was diluted with a wetting agent-containing sterilized water according to an ordinary broth dilution method to prepare a spore solution. 1 ml of the spore solution was then mixed with 1 ml of each of chemical solutions having concentrations which vary stepwise. The mixture was then cultured at a temperature of 27° C. in an incubator for 1 week. The culture was then examined for turbidity to see if the proliferation of fungus occurred. The minimum concentration at which no turbidity occurs was defined to be MIC.
(§3) Aspergillus niger IFO 6431 (A. niger) and Candida albicans ATCC10231 (C. albicans) were used as sample microorganisms.

[2] = test system: Candida albicans ATCC10231; experiment: as above; assay type: cell-based; details: C. albicans; spore solution, 27° C. 1 week
Description: as §2, §3

Erythrocyte = experiment: Minimum hemolytic activity concentration against erythrocyte; assay type: cell-based; details: human erythrocyte, 37° C. 1 hour, O.D.540, 50% hemolysis
Description: Human blood was collected. The sample blood was then mixed with the equal amount of alsebar solution (glucose: 2.05 g; NaCl: 0.42 g; sodium citrate: 0.8 g; citric acid: 0.55 g; pH: 6.1). The mixture was then stored at a temperature of 4° C. Shortly before used for experiment, the alsebar stored blood was subjected to centrifugal separation. Thus, the supernatant liquid and the leukocyte layer on the erythrocyte were removed. To the erythrocyte was then added PBS in an amount of […] that of the erythrocyte to obtain a 50% erythrocyte. 10 μl of the 50% erythrocyte was then mixed with 990 μl of each of chemicals which had been diluted with PBS in amounts varying stepwise. The erythrocyte was acted upon by the chemical at a temperature of 37° C. for 1 hour. The mixture was then subjected to centrifugal separation. The supernatant liquid was collected for the measurement of the optical density at 540 nm (O.D.540). Separately, the foregoing procedure was followed except that no chemicals were used to prepare a 0% hemolytic control. The foregoing procedure was followed except that Milliq water was used instead of PBS to prepare a 100% hemolytic control. For the minimum hemolytic activity concentration of chemical, the minimum concentration at which the hemolytic concentration is […] was determined.

[3] = test system: Bacillus substilis ATCC 6633; experiment: Minimum bactericidal concentration (MBC) against bacteria; assay type: cell-based, Bacillus subtilis; details: contact 30° C. 30 minutes, culture 37° C. 24 hours
Description: (§4) A bacteria solution in the initial stage of logarithmic productive phase which had been adjusted with a nutrient broth according to an ordinary sterilized water dilution method such that the concentration of bacterial suspension reached 10^6 cell/ml was brought into contact with chemical solutions having concentrations which vary stepwise at a temperature of 30° C. for 30 minutes, and then transplanted to a nutrient broth where it was then allowed to stand at a temperature of 37° C. for 24 hours for culture. The nutrient broth was then examined to see if the proliferation of bacteria occurred. Thus, MBC was determined.
(§5) Five kinds of gram-negative bacteria and four kinds of gram-positive bacteria were used as sample bacteria.
(§6) BAMP-6 (Example 12), BAMD-6,8 (Example 13), BAMT-6 (Example 17) and benzalkonium chloride (Comparative Example 1) were determined for MBC value against 5 kinds of gram-negative bacteria and 4 kinds of gram-positive bacteria in the same manner as in Test Example 1.

[4] = test system: Pseudomonas aeruginosa ATCC27583; experiment: MIC by agar plate dilution method; assay type: cell-based; details: P. aeruginosa, 37° C. 24 hours
Description: (§7) MIC value was determined by an agar plate dilution method according to the Law of Japanese Society of Chemotherapy. In some detail, a bacteria solution in stationary state which had been adjusted with a nutrient broth such that the concentration of bacterial suspension reached 10^6 cell/ml was added to agar culture media containing chemical solutions having concentrations which vary in two stages where it was then allowed to stand at a temperature of 37° C. for 24 hours for culture. The bacteria solution was then examined to see if the proliferation of bacteria occurred. Thus, MIC was determined.
(§8) The following three kinds of bacteria were used as sample bacteria:
Pseudomonas aeruginosa ATCC27583 (P. auruginosa); and […]

[5] = test system: Escherichia coli K12 OUT 8401; experiment: Minimum bactericidal concentration (MBC) against bacteria; assay type: cell-based; details: contact 30° C. 30 minutes, culture 37° C. 24 hours
Description: as §4, §5, §6

[6] = test system: Bacillus subtilis IFO 3134; experiment: as above; assay type: cell-based; details: contact 30° C. 30 minutes, culture 37° C. 24 hours
Description: as §4, §5, §6

[7] = test system: Staphylococcus aureus IFO 12732; experiment: as above; assay type: cell-based; details: contact 30° C. 30 minutes, culture 37° C. 24 hours
Description: as §4, §5, §6

[8] = test system: Escherichia coli K12 W 3110; experiment: as above; assay type: cell-based; details: contact 30° C. 30 minutes, culture 37° C. 24 hours
Description: as §4, §5, §6

Bacillus cereus IFO 3001 = experiment: as above; assay type: cell-based; details: contact 30° C. 30 minutes, culture 37° C. 24 hours
Description: as §4, §5, §6

[9] = test system: Pseudomonas aeruginosa ATCC 27583; experiment: as above; assay type: cell-based; details: contact 30° C. 30 minutes, culture 37° C. 24 hours
Description: as §4, §5, §6

[10] = test system: Klebsiella pneumoniae ATCC 13883; experiment: as above; assay type: cell-based; details: contact 30° C. 30 minutes, culture 37° C. 24 hours
Description: as §4, §5, §6

Proteus rettgeri NIT 96 = experiment: as above; assay type: cell-based; details: contact 30° C. 30 minutes, culture 37° C. 24 hours
Description: as §4, §5, §6

[11] = test system: Escherichia coli K12 W 3110; experiment: MIC by agar plate dilution method; assay type: cell-based; details: E. coli, 37° C. 24 hours
Description: as §7, §8
Escherichia coliK12 W 3110 (E. coli);

C. albicans = experiment: Anti-septic power test (USP XX); assay type: cell-based, Candida albicans; details: test sample 0.002 wt %
Description: as §1

[12] = Formulation 1 (chondroitin sodium sulfate 1 wt %)

Substance | time at which the desired anti-septic effect was confirmed (S. aureus; [12]) | time at which the desired anti-septic effect was confirmed (S. aureus; Formulation 2 (taurin 1 wt %)) | time at which the desired anti-septic effect was confirmed (A. niger; [12]) | time at which the desired anti-septic effect was confirmed (A. niger; Formulation 2 (taurin 1 wt %)) | time at which the desired anti-septic effect was confirmed (P. aeruginosa; [12]) | time at which the desired anti-septic effect was confirmed (P. aeruginosa; Formulation 2 (taurin 1 wt %)) | MIC [1] | MIC [2] | Minimum hemolytic activity concentration Erythrocyte (Erythrocyte) | MBC [3] | MIC [4] | MBC [5] | MBC [6] | MBC [7] | MBC [8] | MBC (Bacillus cereus IFO 3001) | MBC [9] | MBC [10] | MBC (Proteus rettgeri NIT 96) | MIC [11] | further results
1,4-bis(N,N-dihexyl-N-methylammoniomethyl)phenylene dichloride [Example 4BAMP-6C] | 1 h | 1 h | 7 days | 14 days | 1 h | 1 h | 16 ppm | 4 ppm | 400 ppm | <2 ppm | <2 ppm | 8 ppm | <2 ppm | <2 ppm | 16 ppm | 4 ppm | 16 ppm | <2 ppm | <2 ppm | 8 ppm | time at which the desired anti-septic effect was confirmed (C. albicans; [12]): 7 days; time at which the desired anti-septic effect was confirmed (C. albicans; Formulation 2 (taurin 1 wt %)): 7 days
benzalkonium chloride [reference compound] | 4 hrs. hr. | 4 hrs. hr. | 28 days | 28 days | 24 hrs. hr. | 24 hrs. hr. | 32 ppm | 16 ppm | 25 ppm | 4 ppm | 8 ppm | 8 ppm | 4 ppm | <2 ppm | 16 ppm | 4 ppm | 32 ppm | 8 ppm | 16 ppm | 32 ppm | time at which the desired anti-septic effect was confirmed (C. albicans; [12]): 21 days; time at which the desired anti-septic effect was confirmed (C. albicans; Formulation 2 (taurin 1 wt %)): 21 days
